Measurements from patent US10982337B2, “Corrosion inhibition” (SCHLUMBERGER TECHNOLOGY CORPORATION, priority 2015, dated 2021).

Assays:
Skeletonema costatum = experiment: Marine algal growth inhibition test ISO 10253; format: cell-based
Protocol: (§1) The acute toxicity of NMHQ to the marine algae Skeletonema costatum was tested. Cultures of the algae Skeletonema costatum were exposed to a series of concentrations of NMHQ. The test was carried out according to ISO protocol ‘ISO 10253 Water quality—Marine algal growth inhibition test with Skeletonema costatum and Phaeodactylum tricornutum’.
(§2) In addition to blank, concentrations of 10, 100, 1000 mg/L (WAF) in sea water were tested.

[1] = Marine algal growth inhibition test ISO 10253; format: cell-based, Skeletonema costatum; settings: Skeletonema costatum, cultures of the marine alga Skeletonema costatum; algal growth inhibition, 72 h, WAF in sea water, 10-1000 mg/L tested
Protocol: as §1, §2

[2] = Corrosion weight loss test on steel coupons in HCl; parameters: Pitting Index: scale not given here
Excerpt: (§3) Such “acceptable” levels of corrosion are application-specific.

[3] = Rotating Cylinder Electrode electrochemistry, charge transfer resistance; settings: 5 mM inhibitor, 10 mM KI, 4 mol/L HCl, 2000 rpm, 80° C.; FIG. 6
Excerpt: (§4) EIS can be used to monitor the corrosion rate of a system. The parameter of interest is the charge transfer resistance, Rct, which can be thought of the ‘resistance’ to corrosion. A metal test piece is used as the working electrode in a three-electrode electrochemical cell with the corrosive solution as electrolyte. Impedance data is obtained by applying a small alternating voltage to the working electrode and measuring the resulting current to obtain a value of impedance. This is done at a range of frequencies. Then, in order to extract the parameter of interest, the metal/inhibitor/electrolyte interfaces are modelled as an electrical equivalent circuit and the theoretical impedance is fitted to the data. […] Charge transfer resistance, Rct, is measured. Charge transfer resistance, Rct is a measure for corrosion resistance, and is inversely proportional to corrosion rate (CR). Therefore 1/Rct is proportional to CR.

[4] = Corrosion weight loss test on steel coupons in HCl; parameters: Pitting Index: scale not given here; remark: listed apart in the source
Excerpt: as §3

[5] = Corrosion weight loss test on steel coupons in HCl
[6] = Rotating Cylinder Electrode electrochemistry, charge transfer resistance; settings: 5 mM inhibitor, 10 mM KI, 4 mol/L HCl, 2000 rpm, 80° C.; FIG. 6; remark: listed apart in the source
Excerpt: as §4

[7] = as above; settings: 5 mM inhibitor, 10 mM KI, 4 mol/L HCl, 2000 rpm, 80° C.; FIG. 6; remark: listed apart in the source
Excerpt: as §4

[8] = Corrosion weight loss test on steel coupons in HCl; parameters: Pitting Index: scale not given here; remark: listed apart in the source
Excerpt: as §3

[9] = Rotating Cylinder Electrode electrochemistry, charge transfer resistance; settings: 5 mM inhibitor, 10 mM KI, 4 mol/L HCl, 2000 rpm, 80° C.; FIG. 6; remark: listed apart in the source
Excerpt: as §4

[10] = 0.3000 wt % (10.97 mmol/L), 4 mol/L HCl, 80° C., 3 hours

## c1ccc2c(c1)CCCN2Cc1cccc2ccccc12 [NMTHQ]
Skeletonema costatum; algal growth inhibition, 72 h, WAF in sea water, 10-1000 mg/L tested
  NOEC(72 h): 1000 mg/L
Skeletonema costatum; seawater under neutral conditions (pH 7.7-8.3)
  aquatic toxicity (in words): zero aquatic toxicity
[1]
  EC50 at 72 h: > 1000 mg/L
  EC90 at 72 h: > 1000 mg/L
[2]; 0.1367 wt % (5.00 mmol/L), no KI, 4 mol/L HCl, 80° C., 3 hours
  Pitting Index: 4
[2]; 0.1382 wt % (5.06 mmol/L) + KI 10 mmol/L
  Pitting Index: 0
[2]; [10]
  Pitting Index: 0
[2]; 13Cr80, 4 mol/L HCl, 80° C., 3 hours
  inhibition performance compared at equivalent molar concentrations (in words): superior to the known acid corrosion inhibitor, NMQCl
[2]; 13Cr80, NMTHQ 4.0-5.1 mmol/L
  factor by which addition of 10 mM potassium iodide reduces the weight loss: 10.5
[3]
  1/Rct (proportional to corrosion rate), NMHQ compared with NMQCl: significant lower
[4]; 0.1368 wt % (5.00 mmol/L), no KI, 4 mol/L HCl, 80° C., 3 hours
  Pitting Index: 3
[4]; 0.1389 wt % (5.08 mmol/L) + KI 10 mmol/L
  Pitting Index: 0
[4]; 0.2065 wt % (7.55 mmol/L), 4 mol/L HCl, 80° C., 3 hours
  Pitting Index: 2
[4]; [10]
  Pitting Index: 0
[4]; 0.3013 wt % (11.02 mmol/L), 4 mol/L HCl, 80° C., 3 hours
  Pitting Index: 0
[4]; 0.3017 wt % (11.04 mmol/L), 4 mol/L HCl, 80° C., 3 hours
  Pitting Index: 0
[4]; N80, NMTHQ 4.0-5.1 mmol/L
  factor by which addition of 10 mM potassium iodide reduces the weight loss: 5.3
[5]; 0.11 wt % (4.02 mmol/L) + KI 10 mmol/L, 2205 (b6)
  Pitting Index: 0
[5]; 0.11 wt % (4.02 mmol/L), no KI, 2205 b6, 4 mol/L HCl, 80° C., 3 hours
  Pitting Index: 4
[5]; 0.1367 wt % (5.00 mmol/L), KI 0, 2205 (b5)
  Pitting Index: 4
[5]; 0.1368 wt % (5.00 mmol/L) + KI 20 mmol/L, 2205 (b5)
  Pitting Index: 0
[5]; 0.1913 wt % (7.00 mmol/L), 2205 b6, 4 mol/L HCl, 80° C., 3 hours
  Pitting Index: 3
[5]; 0.30 wt % (10.97 mmol/L), 2205 b6, 4 mol/L HCl, 80° C., 3 hours
  Pitting Index: 0
[5]; 0.547 wt % (20.01 mmol/L), 2205 b6, 4 mol/L HCl, 80° C., 3 hours
  Pitting Index: 0
[5]; 22Cr125, 4 mol/L HCl, 80° C., 3 hours
  inhibition performance compared at equivalent molar concentrations (in words): very similar to the known acid corrosion inhibitor NMQCl
[5]; 2205 (b6), NMTHQ 4.0-5.1 mmol/L
  factor by which addition of 10 mM potassium iodide reduces the weight loss: 9.4
[6]
  1/Rct (proportional to corrosion rate), NMHQ compared with NMQCl: very similar results
[7]
  1/Rct (proportional to corrosion rate), NMHQ compared with NMQCl: more effective inhibitor
[8]; 0.0055 wt % (0.20 mmol/L), 4 mol/L HCl, 80° C., 3 hours
  Pitting Index: 5
[8]; 0.0273 wt % (1.00 mmol/L), 4 mol/L HCl, 80° C., 3 hours
  Pitting Index: 2
[8]; 0.11 wt % (4.02 mmol/L), 4 mol/L HCl, 80° C., 3 hours
  Pitting Index: 0
[8]; 0.1366 wt % (5.00 mmol/L) + KI 10 mmol/L
  Pitting Index: 0
[8]; 0.1366 wt % (5.00 mmol/L), no KI, 4 mol/L HCl, 80° C., 3 hours
  Pitting Index: 0
[8]; 0.192 wt % (7.02 mmol/L), 4 mol/L HCl, 80° C., 3 hours
  Pitting Index: 0
[8]; HS80, NMTHQ 4.0-5.1 mmol/L
  factor by which addition of 10 mM potassium iodide reduces the weight loss: 8.8
[9]
  1/Rct (proportional to corrosion rate), NMHQ compared with NMQCl: very similar results
